Measurements as given in BindingDB's records for patent US20250034134 (Wuhan Humanwell Innovative Drug Research and Development …, 2025).
pIC50: −log10 of the molar value.

Target: T1, 15-hydroxyprostaglandin dehydrogenase [NAD(+)] (Homo sapiens, UniProt P15428)
T1 sequence (P15428 whole entry): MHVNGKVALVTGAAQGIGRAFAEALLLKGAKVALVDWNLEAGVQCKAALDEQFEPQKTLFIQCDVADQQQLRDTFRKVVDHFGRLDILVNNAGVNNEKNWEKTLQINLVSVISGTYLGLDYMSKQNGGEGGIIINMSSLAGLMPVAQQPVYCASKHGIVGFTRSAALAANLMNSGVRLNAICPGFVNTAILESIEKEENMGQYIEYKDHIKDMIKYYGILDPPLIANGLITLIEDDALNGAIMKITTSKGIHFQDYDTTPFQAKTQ
Test: Inhibition test of compounds on 15-PGDH enzyme
Description: 15-PGDH (R&D Systems, Cat. No.: 5660-DH-010) was prepared to twice the final concentration, i.e., 30 nM, using Assay Buffer (50 mM Tris-HCl, pH 7.5, 0.01vol % Tween 20). The obtained mixture was then added to a 384-well white plate (Cisbio Bioassays, Cat. No. 66PL384025) at 8 μL/well. Negative control wells (with Assay Buffer only and without enzyme) were set. The compound was then prepared to 4 times the final concentration using Assay Buffer, i.e., diluted 3-fold to 10 concentrations starting from 4000 nM. The obtained mixture was added to the above white plate at 4 μL/well, mixed well, centrifuged at 1000 rpm for 1 minute, and incubated at 25° C. for 10 minutes. Both positive control wells (with 15-PGDH only) and negative control wells (without 15-PGDH) were set. A mixture of NAD+(Select, Cat. No. S2518) and PGE2 (R&D Systems, Cat. No.: 2296/10) was then prepared using Assay Buffer. NAD+ and PGE2 were prepared to four times their final concentrations, i.e., 2 mM and 0.12 mM, respectively, using Assay Buffer. The obtained mixture was then added to the above white plate at 4 μL/well, mixed well, centrifuged at 1000 rpm for 1 minute, and incubated at 25° C. for 30 minutes for the reaction. The fluorescence was detected at an excitation wavelength of 340 nm and an emission wavelength of 485 nm using instrument TECAN SPARK 20M.

Row | Structure (SMILES) | pIC50
1 | Cn1ccc2c(c1=O)=CCC(N1CC3CC3C3C=C(C(=O)N4CCC(F)(F)CC4)C=NC31)C=2 (configuration not stated) [US20250034134, Compound I-12] | 8.68
2 | CN1C=NC2C=C(N3CC4CC4C4C=C(C(=O)N5CCC(F)(F)CC5)C=CC43)C=NC2C1=O (configuration not stated) [US20250034134, Compound I-15] | 8.24
3 | CN1C(=O)C2=NCC(N3CC4CC4C4C=C(C(=O)N5CCC(F)(F)CC5)C=NC43)C=C2C12CC2 (configuration not stated) [US20250034134, Compound I-19] | 8.43
4 | Cn1nc2cc(N3CC4CC4C4C=C(C(=O)N5CCOCC5)C=NC43)ccn2c1=O (configuration not stated) [US20250034134, Compound I-22] | 7.99
5 | CN1NC2C=C(N3CC4CC4C4C=C(C(=O)N5CCCC(C(F)F)C5)C=NC43)C=CN2C1=O (configuration not stated) [US20250034134, Compound I-23] | 8.37
6 | [2H]C([2H])([2H])N1NC2C=C(N3CC4CC4C4C=C(C(=O)N5CCC(F)(F)CC5)C=NC43)C=CN2C1=O (configuration not stated) [US20250034134, Compound I-25] | 8.59
7 | Cn1nc2cc(N3CC4CC4C4C=C(C(=O)N5CCCC(C(F)(F)F)C5)C=NC43)ccn2c1=O (configuration not stated) [US20250034134, Compound I-26] | 8.00
8 | CN1NC2C=C(N3CC4CC4C4C=C(C(=O)N5CCCC(F)C5)C=NC43)C=CN2C1=O (configuration not stated) [US20250034134, Compound I-27] | 8.24
9 | CN1NC2C=C(N3CC4CC4C4C=C(C(=O)N5CC6CC6C5)C=NC43)C=CN2C1=O (configuration not stated) [US20250034134, Compound I-29] | 8.28

Other lines, results leading:

Row | pIC50 | Structure (SMILES)
10 | 8.29 | CN1CC2=CC(N3CC4CC4C4C=C(C(=O)N5CCC(F)(F)CC5)C=NC43)CN=C2C1=O (configuration not stated) [US20250034134, Compound I-2]
11 | 8.45 | CN1NC2C=C(N3C[C@H]4C[C@@H]4C4C=C(C(=O)N5CCC(F)(F)CC5)C=NC43)C=CN2C1=O (some centres not stated) [US20250034134, Compound I-3B]
12 | 8.02 | CNC(=O)c1ccc(N2CC3CC3C3C=C(C(=O)N4CCC(F)(F)CC4)C=NC32)cc1F (configuration not stated) [US20250034134, Compound I-9]
13 | 8.42 | N#Cc1ccc(N2CC3CC3C3C=C(C(=O)N4CCC(F)(F)CC4)C=NC32)cc1 (configuration not stated) [US20250034134, Compound I-11]
14 | 8.82 | Cn1ccc2c(c1=O)=CCC(N1C[C@@H]3C[C@@H]3C3C=C(C(=O)N4CCC(F)(F)CC4)C=NC31)C=2 (some centres not stated) [US20250034134, Compound I-12A]
15 | 8.13 | Cn1ccc2c(c1=O)=CCC(N1C[C@H]3C[C@@H]3C3C=C(C(=O)N4CCC(F)(F)CC4)C=NC31)C=2 (some centres not stated) [US20250034134, Compound I-12B]
16 | 8.27 | O=C(C1=CC2C3CC3CN(C3=CC4NC=NN4C=C3)C2N=C1)N1CCC(F)(F)CC1 (configuration not stated) [US20250034134, Compound I-16]
17 | 8.35 | O=C(C1=CC2C3CC3CN(C3=CC4NN=CN4C=C3)C2N=C1)N1CCC(F)(F)CC1 (configuration not stated) [US20250034134, Compound I-17]
18 | 8.31 | CN1NC2C=C(N3CC4CC4C4C=C(C(=O)N5CCC(F)(F)C5)C=NC43)C=CN2C1=O (configuration not stated) [US20250034134, Compound I-21]
19 | 8.37 | CN1NC2C=C(N3CC4CC4C4C=C(C(=O)N5CCCC(F)(F)C5)C=NC43)C=CN2C1=O (configuration not stated) [US20250034134, Compound I-24]
20 | 8.42 | [2H]C([2H])([2H])N1NC2C=C(N3C[C@H]4C[C@@H]4C4C=C(C(=O)N5CCC(F)(F)CC5)C=NC43)C=CN2C1=O (some centres not stated) [US20250034134, Compound I-25B]
21 | 8.77 | CN1NC2C=C(N3CC4CC4C4C=C(C(=O)N5CCC6(CC5)CC6)C=NC43)C=CN2C1=O (configuration not stated) [US20250034134, Compound I-28]
22 | 8.22 | CN1NC2C=C(N3CC4CC4C4C=C(C(=O)N5CCC[C@@H](CF)C5)C=NC43)C=CN2C1=O (some centres not stated) [US20250034134, Compound I-30]
